Experimental findings from paper PMC9668280, “3H-1,2-Benzoxaphosphepine 2-oxides as selective inhibitors of carbonic anhydrase IX and XII” (Journal of Enzyme Inhibition and Medicinal Chemistry, 2022) are described below.

Holding throughout (assay): stopped-flow CO2 hydration assay
Holding throughout (type): biochemical

Experiment [1] deals with T1, hCA IX (Homo sapiens, UniProt Q16790).
T1 construct: gene CA9; recombinant, obtained in-house
As to conditions: read-out: KI (μM)^a,b / hCA IX. The text has this:
stopped-flow CO2 hydration assay on hCA IX

Experiment [2] addresses T2, hCA II (Homo sapiens, UniProt P00918).
T2 construct: gene CA2; recombinant, obtained in-house
As to conditions: CO2 […], […] HEPES pH […] NaClO4, […] h preincubation at room temperature; read-out: KI (μM)^a,b / hCA I.

The target in experiment [3] is T3, hCA XII (Homo sapiens, UniProt O43570).
T3 construct: gene CA12; recombinant, obtained in-house
As to conditions: read-out: KI (μM)^a,b / hCA XII. From the text: stopped-flow CO2 hydration assay on hCA XII

Experiment [4] addresses T4, hCA I (Homo sapiens, UniProt P00915).
T4 construct: gene CA1; recombinant, obtained in-house
As to conditions: read-out: KI (μM)^a,b / hCA I. The text has this:
stopped-flow CO2 hydration assay on hCA I

For experiment [5], the target named is T2, hCA II. As to conditions: CO2 1.7-17 mM, 20 mM HEPES pH 7.4, 20 mM NaClO4, 6 h preincubation at room temperature; read-out: KI (μM)^a,b / hCA I. The text has this:
stopped-flow CO2 hydration assay on hCA II

Where [6] appears, read: CO2 […], […] HEPES pH […] NaClO4, […] h preincubation at room temperature.
[7] abbreviates: CO2 1.7-17 mM, 20 mM HEPES pH 7.4, 20 mM NaClO4, 6 h preincubation at room temperature.

Read-outs that look alike come from different tables or passages of the source. Where only a bound is given, the exact number is not on record here.

T4 sequence (P00915 2-261): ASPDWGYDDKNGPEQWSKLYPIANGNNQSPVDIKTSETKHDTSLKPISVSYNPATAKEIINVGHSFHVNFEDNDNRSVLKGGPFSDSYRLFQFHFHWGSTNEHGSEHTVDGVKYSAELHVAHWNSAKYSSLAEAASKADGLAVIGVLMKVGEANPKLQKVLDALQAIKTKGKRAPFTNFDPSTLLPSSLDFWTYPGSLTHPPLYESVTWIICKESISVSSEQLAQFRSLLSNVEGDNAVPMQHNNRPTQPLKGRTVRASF
T3 sequence (O43570 25-354 limits assumed): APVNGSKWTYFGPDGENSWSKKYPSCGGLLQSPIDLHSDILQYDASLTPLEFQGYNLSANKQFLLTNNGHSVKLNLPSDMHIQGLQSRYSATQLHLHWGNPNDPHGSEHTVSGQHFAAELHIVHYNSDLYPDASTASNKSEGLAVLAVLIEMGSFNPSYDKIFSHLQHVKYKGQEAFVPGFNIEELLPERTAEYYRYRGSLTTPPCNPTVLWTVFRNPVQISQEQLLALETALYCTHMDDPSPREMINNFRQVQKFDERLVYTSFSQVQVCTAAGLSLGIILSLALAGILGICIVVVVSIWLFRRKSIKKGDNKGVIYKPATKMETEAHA

As to `CCOP1(=O)CC=Cc2cc(I)ccc2O1` (stereo not shown) [6b, 2-Ethoxy-7-iodo-3H-benzo[f][1,2]oxaphosphepine 2-oxide], the Ki was 4.7 µM in experiment [1] (setting [6]), > 100 µM in experiment [2], 2.4 µM in experiment [3] (setting [6]) and > 100 µM in experiment [4] (setting [6]).

Consider `O=P1(O)CC=Cc2cc(I)ccc2O1` [7b, 2-Hydroxy-7-iodo-3H-benzo[f][1,2]oxaphosphepine 2-oxide], for which the Ki is 0.88 µM in experiment [1] (setting [6]), > 100 µM in experiment [2], 0.68 µM in experiment [3] (setting [6]) and > 100 µM in experiment [4] (setting [6]).

In the case of `O=P1(O)CC=Cc2cccc(Br)c2O1` [7d, 9-Bromo-2-hydroxy-3H-benzo[f][1,2]oxaphosphepine 2-oxide], the Ki was 2.5 µM in experiment [1] (setting [6]), > 100 µM in experiment [2], 1.8 µM in experiment [3] (setting [6]) and > 100 µM in experiment [4] (setting [6]).

As to `COc1cccc2c1OP(=O)(O)CC=C2` [7e, 2-Hydroxy-9-methoxy-3H-benzo[f][1,2]oxaphosphepine 2-oxide], the Ki was 1.8 µM in experiment [1] (setting [6]), > 100 µM in experiment [2], 1.2 µM in experiment [3] (setting [6]) and > 100 µM in experiment [4] (setting [6]).

For the compound `CCOP1(=O)CC=Cc2cc(Cl)cc(Cl)c2O1` (stereo not shown) [6f, 7,9-Dichloro-2-ethoxy-3H-benzo[f][1,2]oxaphosphepine 2-oxide], the Ki in experiment [1] (setting [6]) is 6.1 µM; in experiment [2], > 100 µM; in experiment [3] (setting [6]), 3.4 µM; in experiment [4] (setting [6]), > 100 µM.

On to `O=P1(O)CC=Cc2cc(Br)ccc2O1` [7c, 7-Bromo-2-hydroxy-3H-benzo[f][1,2]oxaphosphepine 2-oxide], for which the Ki in experiment [1] (setting [6]) is 1 µM; in experiment [2], > 100 µM; in experiment [3] (setting [6]), 0.96 µM; in experiment [4] (setting [6]), > 100 µM.

Turning to `CCOP1(=O)CC=Cc2cc(Br)ccc2O1` (stereo not shown) [6c, 7-Bromo-2-ethoxy-3H-benzo[f][1,2]oxaphosphepine 2-oxide], the Ki in experiment [1] (setting [6]) is 0.76 µM; in experiment [2], > 100 µM; in experiment [3] (setting [6]) it was 1.6 µM; in experiment [4] (setting [6]), > 100 µM.

In the case of `CCOP1(=O)CC=Cc2cccc(OC)c2O1` (stereo not shown) [6e, 2-Ethoxy-9-methoxy-3H-benzo[f][1,2]oxaphosphepine 2-oxide], the Ki is 9 µM in experiment [1] (setting [6]), > 100 µM in experiment [2], 7.4 µM in experiment [3] (setting [6]) and > 100 µM in experiment [4] (setting [6]).

As for `CCOP1(=O)CC=Cc2cc([N+](=O)[O-])ccc2O1` (stereo not shown) [6g, 2-Ethoxy-7-nitro-3H-benzo[f][1,2]oxaphosphepine 2-oxide], the Ki in experiment [1] (setting [6]) is 3.9 µM; in experiment [2], > 100 µM; in experiment [3] (setting [6]) it was 0.95 µM; in experiment [4] (setting [6]) it was > 100 µM.

On to “2-Hydroxy-3H-benzo[f][1,2]oxaphosphepine 2-oxide [7a]”, for which the Ki in experiment [1] (setting [7]) is 1.3 µM; in experiment [5], > 100 µM; in experiment [3] (setting [7]), 0.51 µM; in experiment [4] (setting [7]), > 100 µM.

In the case of `CCOP1(=O)CC=Cc2cccc(Br)c2O1` (stereo not shown) [6d, 9-Bromo-2-ethoxy-3H-benzo[f][1,2]oxaphosphepine 2-oxide], the Ki is 11.3 µM in experiment [1] (setting [6]), > 100 µM in experiment [2], 3.3 µM in experiment [3] (setting [6]) and > 100 µM in experiment [4] (setting [6]).

In the case of `O=P1(O)CC=Cc2cc(Cl)cc(Cl)c2O1` [7f, 7,9-Dichloro-2-hydroxy-3H-benzo[f][1,2]oxaphosphepine 2-oxide], the Ki in experiment [1] (setting [6]) was 0.8 µM; in experiment [2], > 100 µM; in experiment [3] (setting [6]), 1.7 µM; in experiment [4] (setting [6]) it was > 100 µM.

`O=[N+]([O-])c1ccc2c(c1)C=CCP(=O)(O)O2` [7g, 2-Hydroxy-7-nitro-3H-benzo[f][1,2]oxaphosphepine 2-oxide]: the Ki is 0.67 µM in experiment [1] (setting [6]), > 100 µM in experiment [2], 1 µM in experiment [3] (setting [6]) and > 100 µM in experiment [4] (setting [6]).

As to `CCOP1(=O)CC=Cc2ccccc2O1` (stereo not shown) [6a, 2-Ethoxy-3H-benzo[f][1,2]oxaphosphepine 2-oxide], the figures for the Ki in experiment [1] (setting [6]), in experiment [2] and in experiment [4] (setting [6]) were 0.82 µM, > 100 µM and > 100 µM, respectively.
